Assay results: patent US20150004100A1, “HETEROCYCLIC COMPOUNDS AS IMAGING PROBES OF TAU PATHOLOGY” (GE HEALTHCARE LIMITED, priority 2011, published 2015)
Entries after “also recorded” stand apart in the source; their conditions may differ.

test system: Aβ+ plaques; experiment: Tissue binding assay (fluorescence), plaques in human AD tissue sections; set-up: key to Plaques (staining): −: No staining; +: weak staining; ++: moderate staining; +++: intense staining; settings: Table 2; 100 μM, human AD tissue
Method: (§1) Human brain tissue samples from the entorhinal cortex of patients with Alzheimer's disease (AD) and healthy controls were obtained from Tissue Solutions (Tissue Solutions Ltd, Glasgow, UK). Tissue samples were collected after informed written consent, and specimens were dissected at the tissue bank and snap-frozen for cryopreservation at a time interval of between 3 and 18 h after death. The frozen tissue was embedded in TissueTek® (VWR) and sectioned using a Microm HM560 cryostat (Thermo Scientific). Serial 12 μm sections were mounted onto SuperFrost®+ glass slides (VWR) and stored a −70° C.
(§2) The binding of compounds to tau+NFTs and Aβ+ plaques in human AD tissue were evaluated based on fluorescence.
(§3) Briefly, tissue sections were defrosted and fixed in ice-cold 70% ethanol. All tissue sections were rinsed with PBS after fixation and between all subsequent incubation steps. To quench autofluorescence, tissue sections were incubated first with 0.25% KMnO4 (Sigma-Aldrich) in PBS for 12 min, and then with 0.1% […]/0.1% oxalic acid (both reagents from Sigma-Aldrich) in PBS for 1 min. The tissue sections were blocked with 2% BSA in PBS for 10 min, and then incubated with the test compounds at 100 μM concentration for 1 h at RT. […] Finally the tissue sections were rinsed in PBS, and mounted in SlowFade® mounting media (Invitrogen). Images of labelled tissue sections were captured using a Nikon digital camera connected to a Leica microscope and using the NIS Elements D software (Nikon). Images were further processed with the Photoshop® software (Adobe).

Plaques (staining)	Structure (SMILES)
−	COc1ccc(-n2nc(C(=O)N3CCN(c4cccc(F)n4)CC3)c3csc(NC(=O)OC(C)(C)C)c3c2=O)cc1 [Compound 91]
−	COc1ccc(-n2nc(C(=O)N3CCN(c4cccc(F)n4)CC3)c3csc(N)c3c2=O)cc1 [Compound 90]
++	CC(C)NC(=O)c1nn(-c2ccc([N+](=O)[O-])cc2)c(=O)c2c(N)scc12 [Compound 105]
+	CC(C)NC(=O)c1nn(-c2ccc(F)cc2)c(=O)c2c(N)scc12 [Compound 14]
++	COc1ccc(-n2nc(C(=O)NC(C)C)c3csc(N(C)C)c3c2=O)cc1 [Compound 82]

same assay, conditions: Table 3; 100 μM, human AD tissue

Plaques (staining)	Structure (SMILES)
−	CC(C)NC(=O)c1nn(-c2ccc(OCCF)cc2)c(=O)c2c(NC(=O)OC(C)(C)C)scc12 [Compound 64]
−	COc1ccc(-n2nc(C(=O)N3CCC(CCF)CC3)c3csc(N)c3c2=O)cc1 [Compound 56]
+	COc1ccc(-n2nc(C(=O)N3CC[C@@H](F)C3)c3csc(N)c3c2=O)cc1 [Compound 107]
−	COc1ccc(-n2nc(C(=O)N3CC[C@H](F)C3)c3csc(N)c3c2=O)cc1 [Compound 108]

same assay, conditions: high test concentration, AD tissue

Structure (SMILES)	Binding to plaques (in words)
CC(C)NC(=O)c1nn(-c2ccc([N+](=O)[O-])cc2)c(=O)c2c(N)scc12 [Compound 105]	binds to NFTs (C, D) and plaques (D); also recorded: bind to both NFTs and plaques

test system: tau+ NFTs; experiment: Tissue binding assay (fluorescence), NFTs in human AD tissue sections; set-up: key to NFTs (staining): −: No staining; +: weak staining; ++: moderate staining; +++: intense staining; settings: Table 2; 100 μM, human AD tissue
Method: as §1, §2, §3

NFTs (staining)	Structure (SMILES)
−	COc1ccc(-n2nc(C(=O)N3CCN(c4cccc(F)n4)CC3)c3csc(NC(=O)OC(C)(C)C)c3c2=O)cc1 [Compound 91]
++	CC(C)NC(=O)c1nn(-c2ccc([N+](=O)[O-])cc2)c(=O)c2c(N)scc12 [Compound 105]
+	CC(C)NC(=O)c1nn(-c2ccc(F)cc2)c(=O)c2c(N)scc12 [Compound 14]
+	COc1ccc(-n2nc(C(=O)NC(C)C)c3csc(N(C)C)c3c2=O)cc1 [Compound 82]

same assay, conditions: Table 3; 100 μM, human AD tissue

NFTs (staining)	Structure (SMILES)
−	CC(C)NC(=O)c1nn(-c2ccc(OCCF)cc2)c(=O)c2c(NC(=O)OC(C)(C)C)scc12 [Compound 64]
−	COc1ccc(-n2nc(C(=O)N3CCC(CCF)CC3)c3csc(N)c3c2=O)cc1 [Compound 56]
−	COc1ccc(-n2nc(C(=O)N3CC[C@@H](F)C3)c3csc(N)c3c2=O)cc1 [Compound 107]
−	COc1ccc(-n2nc(C(=O)N3CC[C@H](F)C3)c3csc(N)c3c2=O)cc1 [Compound 108]

same assay, conditions: high test concentration, AD tissue

Structure (SMILES)	Binding to NFTs (in words)
CC(C)NC(=O)c1nn(-c2ccc([N+](=O)[O-])cc2)c(=O)c2c(N)scc12 [Compound 105]	binds to NFTs (C, D) and plaques (D); also recorded: bind to both NFTs and plaques

test system: tau+ NFTs; experiment: as above; set-up: key to NFTs (staining): −: No staining; +: weak staining; ++: moderate staining; +++: intense staining; settings: Table 2; 1 μM, human AD tissue

NFTs (staining)	Structure (SMILES)
−	CC(C)NC(=O)c1nn(-c2ccc([N+](=O)[O-])cc2)c(=O)c2c(N)scc12 [Compound 105]
−	CC(C)NC(=O)c1nn(-c2ccc(F)cc2)c(=O)c2c(N)scc12 [Compound 14]

same assay, conditions: Table 2; 10 μM, human AD tissue

NFTs (staining)	Structure (SMILES)
+	CC(C)NC(=O)c1nn(-c2ccc([N+](=O)[O-])cc2)c(=O)c2c(N)scc12 [Compound 105]
−	CC(C)NC(=O)c1nn(-c2ccc(F)cc2)c(=O)c2c(N)scc12 [Compound 14]

same assay, conditions: lower test concentrations, AD tissue

Structure (SMILES)	Binding preference for NFTs (in words)
CC(C)NC(=O)c1nn(-c2ccc([N+](=O)[O-])cc2)c(=O)c2c(N)scc12 [Compound 105]	binds preferentially to NFTs; also recorded: bind with a preference for NFTs

test system: rat liver microsomes; experiment: Liver microsome stability assay, rat; format: in vitro ADME; settings: 1 μM, 37° C., 5 min; parent compound remaining; criterion >50%
Method: (§4) The liver microsome stability assay provides an estimate of compound stability and rate of metabolism in vivo. The desirable criterion for this assay is >50% parent compound after 30 min.
(§5) A 1 μM compound solution was incubated with rat or human liver microsomes (20 mg/ml) at 37° C. and the amount of parent compound remaining following the incubation was determined after 5 and 30 min of incubation using LC-MS.

Structure (SMILES)	Liver stability Rat (% PCP) 5 min
CC(C)NC(=O)c1nn(-c2ccc([N+](=O)[O-])cc2)c(=O)c2c(N)scc12 [Compound 105]	81.29 % PCP
CC(C)NC(=O)c1nn(-c2ccc(F)cc2)c(=O)c2c(N)scc12 [Compound 14]	92.8 % PCP

The next lines start with the values.

Liver stability Rat (% PCP) 5 min	Structure (SMILES)
94.88 % PCP	COc1ccc(-n2nc(C(=O)N3CCC(CCF)CC3)c3csc(N)c3c2=O)cc1 [Compound 56]
72.67 % PCP	COc1ccc(-n2nc(C(=O)N3CCN(c4cccc(F)n4)CC3)c3csc(N)c3c2=O)cc1 [Compound 90]

same assay, conditions: 1 μM, 37° C., 30 min; parent compound remaining; criterion >50%

Structure (SMILES)	Liver stability Rat (% PCP) 30 min
CC(C)NC(=O)c1nn(-c2ccc([N+](=O)[O-])cc2)c(=O)c2c(N)scc12 [Compound 105]	58.8 % PCP
CC(C)NC(=O)c1nn(-c2ccc(F)cc2)c(=O)c2c(N)scc12 [Compound 14]	64.0 % PCP

Further lines, results first:

Liver stability Rat (% PCP) 30 min	Structure (SMILES)
92.06 % PCP	COc1ccc(-n2nc(C(=O)N3CCC(CCF)CC3)c3csc(N)c3c2=O)cc1 [Compound 56]
53.0 % PCP	COc1ccc(-n2nc(C(=O)N3CCN(c4cccc(F)n4)CC3)c3csc(N)c3c2=O)cc1 [Compound 90]

test system: not listed separately; experiment: Protein binding assay, rat brain homogenates (rapid equilibrium dialysis); format: in vitro ADME; settings: rat brain homogenate, % bound, criterion <99%
Method: (§6) The protein binding assays provide an estimate of free (unbound) fraction of the compound in the blood or brain in vivo. […] The desirable criterion for this assay is <99% of test compound bound.
(§7) Test compounds were first dissolved in DMSO to a concentration of 50 μM. This was followed by incubation in samples of human plasma and rat brain homogenates (final test concentration 1 μM). Binding of compounds to proteins was determined in the samples by rapid equilibrium dialysis after 5 and 30 min of incubation.

Structure (SMILES)	fraction unbound at 1 μM
CC(C)NC(=O)c1nn(-c2ccc([N+](=O)[O-])cc2)c(=O)c2c(N)scc12 [Compound 105]	0.112
CC(C)NC(=O)c1nn(-c2ccc(F)cc2)c(=O)c2c(N)scc12 [Compound 14]	0.383

Second part, the compound after the results:

fraction unbound at 1 μM	Structure (SMILES)
0.448	COc1ccc(-n2nc(C(=O)N3CCC(CCF)CC3)c3csc(N)c3c2=O)cc1 [Compound 56]
0.112	COc1ccc(-n2nc(C(=O)N3CCN(c4cccc(F)n4)CC3)c3csc(N)c3c2=O)cc1 [Compound 90]

test system: Aβ+ plaques; experiment: Tissue binding assay (fluorescence), plaques in human AD tissue sections; set-up: key to Plaques (staining): −: No staining; +: weak staining; ++: moderate staining; +++: intense staining; settings: Table 2; 1 μM, human AD tissue

Plaques (staining)	Structure (SMILES)
−	CC(C)NC(=O)c1nn(-c2ccc(F)cc2)c(=O)c2c(N)scc12 [Compound 14]
−	COc1ccc(-n2nc(C(=O)NC(C)C)c3csc(N(C)C)c3c2=O)cc1 [Compound 82]

same assay, conditions: Table 2; 10 μM, human AD tissue

Plaques (staining)	Structure (SMILES)
−	CC(C)NC(=O)c1nn(-c2ccc([N+](=O)[O-])cc2)c(=O)c2c(N)scc12 [Compound 105]
−	CC(C)NC(=O)c1nn(-c2ccc(F)cc2)c(=O)c2c(N)scc12 [Compound 14]
−	COc1ccc(-n2nc(C(=O)NC(C)C)c3csc(N(C)C)c3c2=O)cc1 [Compound 82]

same assay, conditions: Table 3; 1 μM, human AD tissue

Plaques (staining)	Structure (SMILES)
−	COc1ccc(-n2nc(C(=O)N3CC[C@@H](F)C3)c3csc(N)c3c2=O)cc1 [Compound 107]

same assay, conditions: Table 3; 10 μM, human AD tissue

Plaques (staining)	Structure (SMILES)
−	COc1ccc(-n2nc(C(=O)N3CC[C@@H](F)C3)c3csc(N)c3c2=O)cc1 [Compound 107]

test system: human liver microsomes; experiment: Liver microsome stability assay, human; format: in vitro ADME; settings: 1 μM, 37° C., 5 min; parent compound remaining; criterion >50%
Method: as §4, §5

Structure (SMILES)	Liver stability Human (% PCP) 5 min
CC(C)NC(=O)c1nn(-c2ccc([N+](=O)[O-])cc2)c(=O)c2c(N)scc12 [Compound 105]	91.5 % PCP
CC(C)NC(=O)c1nn(-c2ccc(F)cc2)c(=O)c2c(N)scc12 [Compound 14]	92.1 % PCP

The remaining lines, values ahead:

Liver stability Human (% PCP) 5 min	Structure (SMILES)
80.98 % PCP	COc1ccc(-n2nc(C(=O)N3CCC(CCF)CC3)c3csc(N)c3c2=O)cc1 [Compound 56]
44.62 % PCP	COc1ccc(-n2nc(C(=O)N3CCN(c4cccc(F)n4)CC3)c3csc(N)c3c2=O)cc1 [Compound 90]

same assay, conditions: 1 μM, 37° C., 30 min; parent compound remaining; criterion >50%

Structure (SMILES)	Liver stability Human (% PCP) 30 min
CC(C)NC(=O)c1nn(-c2ccc([N+](=O)[O-])cc2)c(=O)c2c(N)scc12 [Compound 105]	73.2 % PCP
CC(C)NC(=O)c1nn(-c2ccc(F)cc2)c(=O)c2c(N)scc12 [Compound 14]	61.3 % PCP

Second part, the compound after the results:

Liver stability Human (% PCP) 30 min	Structure (SMILES)
52.10 % PCP	COc1ccc(-n2nc(C(=O)N3CCC(CCF)CC3)c3csc(N)c3c2=O)cc1 [Compound 56]
2.57 % PCP	COc1ccc(-n2nc(C(=O)N3CCN(c4cccc(F)n4)CC3)c3csc(N)c3c2=O)cc1 [Compound 90]

test system: not listed separately; experiment: Protein binding assay, human plasma (rapid equilibrium dialysis); format: in vitro ADME; settings: % bound, criterion <99%
Method: as §6, §7

Structure (SMILES)	fraction unbound at 1 μM
CC(C)NC(=O)c1nn(-c2ccc([N+](=O)[O-])cc2)c(=O)c2c(N)scc12 [Compound 105]	0.02
CC(C)NC(=O)c1nn(-c2ccc(F)cc2)c(=O)c2c(N)scc12 [Compound 14]	0.0522

The next lines start with the values.

fraction unbound at 1 μM	Structure (SMILES)
0.0372	COc1ccc(-n2nc(C(=O)N3CCC(CCF)CC3)c3csc(N)c3c2=O)cc1 [Compound 56]
0.0084	COc1ccc(-n2nc(C(=O)N3CCN(c4cccc(F)n4)CC3)c3csc(N)c3c2=O)cc1 [Compound 90]

test system: not listed separately; experiment: PAMPA (parallel artificial membrane permeability assay); format: in vitro ADME; settings: 10 μM, 5 h at RT; criterion >−6
Method: The PAMPA assay is used to determine how well a compound crosses a cell membrane by measuring its passage through a phosphotidyl choline barrier. A permeability coefficient >−6 indicates high permeability across lipid membranes and is indicative of a compounds ability to cross the blood brain barrier.
A 10 μM solution was incubated on a PDVF membrane coated with a 2% phoshotidyl choline solution for 5 h at RT. Membrane penetration was measured using LC-MS.

Structure (SMILES)	PAMPA Log Pe
CC(C)NC(=O)c1nn(-c2ccc([N+](=O)[O-])cc2)c(=O)c2c(N)scc12 [Compound 105]	−5.10
CC(C)NC(=O)c1nn(-c2ccc(F)cc2)c(=O)c2c(N)scc12 [Compound 14]	−4.89

Other lines, results leading:

PAMPA Log Pe	Structure (SMILES)
−5.16	COc1ccc(-n2nc(C(=O)N3CCC(CCF)CC3)c3csc(N)c3c2=O)cc1 [Compound 56]
−5.51	COc1ccc(-n2nc(C(=O)N3CCN(c4cccc(F)n4)CC3)c3csc(N)c3c2=O)cc1 [Compound 90]
